Measurements reported in patent publication US4468511A, “C-20- And C-23-Modified macrolide derivatives” (Eli Lilly and Company, priority 1983, dated 1984).
≈ marks a conversion by molar mass, not a printed value. Where two headings read alike, the source gives them in different places.

Experiments:
Type in all cases: cell-based
[1] = tested on: Klebsiella pneumoniae KAE; test: MIC, standard agar-dilution assay; conditions: agar-dilution; Klebsiella pneumoniae KAE; read-out: MIC
Protocol: (§1) Certain of the derivatives are active against some gram-negative bacteria, such as Pasteurella species. The MIC's in Table II were determined by standard agar-dilution assays. The MIC's in Table III were obtained using a conventional broth-dilution microtiter test.

Escherichia coli TEM = test: MIC, standard agar-dilution assay
Protocol: as §1

Escherichia coli EC14 = test: MIC, standard agar-dilution assay
Protocol: as §1

[2] = tested on: Streptococcus Group D X66; test: MIC, standard agar-dilution assay
Protocol: as §1

[3] = tested on: Klebsiella pneumoniae X26; test: MIC, standard agar-dilution assay
Protocol: as §1

[4] = tested on: Staphylococcus aureus V41; test: MIC, standard agar-dilution assay; conditions: Staphylococcus aureus, V41
Protocol: as §1

[5] = tested on: Staphylococcus aureus X1.1; test: MIC, standard agar-dilution assay
Protocol: as §1

[6] = tested on: Streptococcus pyogenes 9960; test: MIC, standard agar-dilution assay
Protocol: as §1

[7] = tested on: Streptococcus pneumoniae Park I; test: MIC, standard agar-dilution assay
Protocol: as §1

Streptococcus sp. 80 = test: MIC, conventional broth-dilution microtiter test; conditions: broth-dilution microtiter; Streptococcus sp. 80; read-out: MIC
Protocol: as §1

[8] = tested on: Pasteurella multocida 60A; test: MIC, conventional broth-dilution microtiter test; conditions: broth-dilution microtiter; Pasteurella multocida 60A, Avian isolate; read-out: MIC
Protocol: as §1

[9] = tested on: Mycoplasma gallisepticum 34159; test: MIC, conventional broth-dilution microtiter test; conditions: Mycoplasmoides gallisepticum; broth-dilution microtiter; Mycoplasma gallisepticum 34159, Resistant strain; read-out: MIC
Protocol: as §1

[10] = tested on: Pasteurella multocida 40G; test: MIC, conventional broth-dilution microtiter test; conditions: broth-dilution microtiter; Pasteurella multocida 40G; read-out: MIC
Protocol: as §1

[11] = tested on: Pasteurella hemolytica 23C; test: MIC, conventional broth-dilution microtiter test
Protocol: as §1

[12] = tested on: Pasteurella hemolytica 41D; test: MIC, conventional broth-dilution microtiter test
Protocol: as §1

[13] = tested on: Pasteurella hemolytica 22C; test: MIC, conventional broth-dilution microtiter test
Protocol: as §1

[14] = tested on: Mycoplasma gallisepticum 41313; test: MIC, conventional broth-dilution microtiter test; conditions: Mycoplasmoides gallisepticum; broth-dilution microtiter; Mycoplasma gallisepticum 41313, Resistant strain; read-out: MIC
Protocol: as §1

[15] = tested on: Pasteurella multocida 22A; test: MIC, conventional broth-dilution microtiter test; conditions: broth-dilution microtiter; Pasteurella multocida 22A; read-out: MIC
Protocol: as §1

[16] = tested on: Pasteurella multocida 68C; test: MIC, conventional broth-dilution microtiter test; conditions: broth-dilution microtiter; Pasteurella multocida 68C; read-out: MIC
Protocol: as §1

Mycoplasma gallisepticum = test: MIC, conventional broth-dilution microtiter test; conditions: Mycoplasmoides gallisepticum
Protocol: as §1

[17] = tested on: Pasteurella multocida 17E; test: MIC, conventional broth-dilution microtiter test; conditions: broth-dilution microtiter; Pasteurella multocida 17E, Bovine isolate; read-out: MIC
Protocol: as §1

Mycoplasma hyorhinis = test: MIC, conventional broth-dilution microtiter test
Protocol: as §1

Staphylococcus aureus = test: MIC, conventional broth-dilution microtiter test
Protocol: as §1

[18] = tested on: Staphylococcus aureus S13E; test: microbe, parasite or virus in culture
Protocol: (§2) The MIC's in Table II were determined by standard agar-dilution assays. The MIC's in Table III were obtained using a conventional broth-dilution microtiter test.

[19] = tested on: Staphylococcus epidermidis EPI1; test: microbe, parasite or virus in culture; conditions: Staphylococcus epidermidis, EPI1
Protocol: as §2

[20] = tested on: Haemophilus influenzae C.L.; test: MIC, standard agar-dilution assay
Protocol: as §2

[21] = tested on: Staphylococcus epidermidis EPI2; test: MIC, standard agar-dilution assay
Protocol: as §2

[22] = tested on: Staphylococcus aureus X400; test: MIC, standard agar-dilution assay
Protocol: as §2

[23] = tested on: Haemophilus influenzae 76; test: MIC, standard agar-dilution assay
Protocol: as §2

[24] = tested on: Streptococcus pyogenes C203; test: MIC, standard agar-dilution assay
Protocol: as §1

[25] = agar-dilution, Escherichia coli EC14, read-out: MIC
[26] = agar-dilution, Klebsiella pneumoniae X26, read-out: MIC
[27] = broth-dilution microtiter, Pasteurella hemolytica 23C, read-out: MIC
[28] = broth-dilution microtiter, Pasteurella hemolytica 41D, read-out: MIC
[29] = broth-dilution microtiter, Pasteurella hemolytica 22C, read-out: MIC
[30] = broth-dilution microtiter, Mycoplasma hyorhinis, read-out: MIC
[31] = broth-dilution microtiter, read-out: MIC
[32] = agar-dilution, Escherichia coli TEM, read-out: MIC
[33] = agar-dilution, Streptococcus Group D X66, read-out: MIC
[34] = agar-dilution, Streptococcus 9960, read-out: MIC
[35] = Staphylococcus epidermidis, EPI2

SMILES	MIC [1]	MIC (Escherichia coli EC14; [25])	MIC [2]	MIC [4]	MIC (Streptococcus sp. 80)	MIC [8]	MIC [9]	MIC [10]	MIC [14]	MIC [15]	MIC [16]	MIC [17]	MIC [18]	MIC [19]	MIC ([20]; Haemophilus influenzae)	MIC ([22]; Staphylococcus aureus, X400)	MIC (Escherichia coli TEM; [32])	MIC ([5]; Staphylococcus aureus, X1.1)	MIC ([7]; Streptococcus pneumoniae)	MIC [21, 35]	also measured
CCC1OC(=O)CC(O)C(C)C(OC2OC(C)C(O)C(N(C)C)C2O)C(CCN2C(=O)c3ccccc3C2=O)CC(C)C(=O)C=CC(C)=CC1CO (stereo not drawn) [Compound 6, 20-N-Phthalimido-20-deoxy-20-dihydro-OMT]	> 128 µg/mL	> 128 µg/mL	16 µg/mL (≈ 22 µM)	8 µg/mL (≈ 11 µM)	3.12 µg/mL (≈ 4.28 µM)	50 µg/mL (≈ 68.6 µM)	50 µg/mL (≈ 68.6 µM)	50 µg/mL (≈ 68.6 µM)	50 µg/mL (≈ 68.6 µM)	50 µg/mL (≈ 68.6 µM)	25 µg/mL (≈ 34.3 µM)	50 µg/mL (≈ 68.6 µM)	8 µg/mL (≈ 11 µM)	4 µg/mL (≈ 5.49 µM)	64 µg/mL (≈ 87.8 µM)	16 µg/mL (≈ 22 µM)					MIC (Escherichia coli TEM; Escherichia coli): 64 µg/mL (≈ 87.8 µM); MIC [3, 26]: 16 µg/mL (≈ 22 µM); MIC ([5]; agar-dilution, Staphylococcus aureus X1.1, read-out: MIC): 4 µg/mL (≈ 5.49 µM); MIC [6]; 9960: 16 µg/mL (≈ 22 µM); MIC ([7]; agar-dilution, Streptococcus pneumoniae Park I, read-out: MIC): 2 µg/mL (≈ 2.74 µM); MIC [11, 27]: 50 µg/mL (≈ 68.6 µM); MIC [12, 28]: 50 µg/mL (≈ 68.6 µM); MIC [13, 29]: 50 µg/mL (≈ 68.6 µM); MIC (Mycoplasma gallisepticum; broth-dilution microtiter, Mycoplasma gallisepticum, read-out: MIC): 3.12 µg/mL (≈ 4.28 µM); MIC (Mycoplasma hyorhinis; [30]): 50 µg/mL (≈ 68.6 µM); MIC (Staphylococcus aureus; [31]): 25 µg/mL (≈ 34.3 µM); MIC ([21]; agar-dilution, Staphylococcus epidermidis EPI2, read-out: MIC): 2 µg/mL (≈ 2.74 µM); MIC ([23]; Haemophilus influenzae, 76): 64 µg/mL (≈ 87.8 µM)
CCC1OC(=O)CC(O)C(C)C(OC2OC(C)C(O)C(N(C)C)C2O)C(CCN2C(=O)c3ccccc3C2=O)CC(C)C(=O)C=CC(C)=CC1C (stereo not drawn) [Compound 22, 20-N-Phthalimido-20-deoxy-20-dihydro-DOMT]	> 128 µg/mL	> 128 µg/mL		8 µg/mL (≈ 11.2 µM)	6.25 µg/mL (≈ 8.77 µM)	50 µg/mL (≈ 70.1 µM)	50 µg/mL (≈ 70.1 µM)	50 µg/mL (≈ 70.1 µM)	50 µg/mL (≈ 70.1 µM)	50 µg/mL (≈ 70.1 µM)	25 µg/mL (≈ 35.1 µM)	50 µg/mL (≈ 70.1 µM)	8 µg/mL (≈ 11.2 µM)	8 µg/mL (≈ 11.2 µM)	128 µg/mL (≈ 180 µM)	32 µg/mL (≈ 44.9 µM)	128 µg/mL (≈ 180 µM)	8 µg/mL (≈ 11.2 µM)	4 µg/mL (≈ 5.61 µM)	4 µg/mL (≈ 5.61 µM)	MIC [2, 33]: 16 µg/mL (≈ 22.4 µM); MIC ([3]; Klebsiella pneumoniae, X26): 32 µg/mL (≈ 44.9 µM); MIC [6, 34]: 16 µg/mL (≈ 22.4 µM); MIC [11, 27]: 50 µg/mL (≈ 70.1 µM); MIC [12, 28]: 50 µg/mL (≈ 70.1 µM); MIC [13, 29]: 50 µg/mL (≈ 70.1 µM); MIC (Mycoplasma gallisepticum): 0.78 µg/mL (≈ 1.09 µM); MIC (Mycoplasma hyorhinis; [30]): 25 µg/mL (≈ 35.1 µM); MIC (Staphylococcus aureus; [31]): 25 µg/mL (≈ 35.1 µM); MIC ([23]; Haemophilus influenzae, 76): 128 µg/mL (≈ 180 µM)
CCC1CC(C)C(=O)C=CC(C)=CC(COC(C)=O)C(CC)OC(=O)CC(O)C(C)C1OC1OC(C)C(OC(C)=O)C(N(C)C)C1OC(C)=O (stereo not drawn) [Compound 40, 2',4',23-Tri-O-acetyl-20-deoxy-20-dihydro-OMT]	> 128 µg/mL	> 128 µg/mL		4 µg/mL (≈ 5.63 µM)	12.5 µg/mL (≈ 17.6 µM)	12.5 µg/mL (≈ 17.6 µM)	> 50 µg/mL	25 µg/mL (≈ 35.2 µM)	> 50 µg/mL	25 µg/mL (≈ 35.2 µM)	12.5 µg/mL (≈ 17.6 µM)	25 µg/mL (≈ 35.2 µM)	4 µg/mL (≈ 5.63 µM)	4 µg/mL (≈ 5.63 µM)			> 128 µg/mL	4 µg/mL (≈ 5.63 µM)	4 µg/mL (≈ 5.63 µM)	4 µg/mL (≈ 5.63 µM)	MIC [2, 33]: 8 µg/mL (≈ 11.3 µM); MIC ([24]; agar-dilution, Streptococcus pyogenes C203, read-out: MIC): 16 µg/mL (≈ 22.5 µM); MIC [3, 26]: 16 µg/mL (≈ 22.5 µM); MIC [6, 34]: 8 µg/mL (≈ 11.3 µM); MIC ([11]; Pasteurella, 23C): 50 µg/mL (≈ 70.4 µM); MIC ([12]; Pasteurella, 41D): 50 µg/mL (≈ 70.4 µM); MIC ([13]; Pasteurella, 22C): 50 µg/mL (≈ 70.4 µM); MIC (Mycoplasma gallisepticum): 6.25 µg/mL (≈ 8.8 µM); MIC (Mycoplasma hyorhinis; Mycoplasma): 50 µg/mL (≈ 70.4 µM); MIC (Staphylococcus aureus): 6.25 µg/mL (≈ 8.8 µM); MIC ([22]; agar-dilution, Staphylococcus aureus X400, Methicillin-resistant strain, read-out: MIC): 16 µg/mL (≈ 22.5 µM)
CCC1OC(=O)CC(O)C(C)C(OC2OC(C)C(O)C(N(C)C)C2O)C(CCO)CC(C)C(=O)C=CC(C)=CC1COC(=O)CCc1ccccc1 (stereo not drawn) [Compound 52, 20-Dihydro-23-O-phenylpropionyl-OMT]	> 128 µg/mL		1 µg/mL (≈ 1.37 µM)	0.5 µg/mL (≈ 0.683 µM)									0.5 µg/mL (≈ 0.683 µM)	0.5 µg/mL (≈ 0.683 µM)		1 µg/mL (≈ 1.37 µM)	8 µg/mL (≈ 10.9 µM)	0.5 µg/mL (≈ 0.683 µM)	0.25 µg/mL (≈ 0.342 µM)	0.5 µg/mL (≈ 0.683 µM)	MIC (Escherichia coli EC14; Escherichia coli, EC14): 64 µg/mL (≈ 87.4 µM); MIC ([24]; Streptococcus pyogenes, C203): 0.25 µg/mL (≈ 0.342 µM); MIC ([3]; Klebsiella pneumoniae, X26): 4 µg/mL (≈ 5.47 µM); MIC [6, 34]: 2 µg/mL (≈ 2.73 µM); MIC ([20]; agar-dilution, Haemophilus influenzae C.L., Ampicillin-sensitive strain, read-out: MIC): 8 µg/mL (≈ 10.9 µM); MIC ([23]; agar-dilution, Haemophilus influenzae 76, Ampicillin-resistant strain, read-out: MIC): 8 µg/mL (≈ 10.9 µM)
CCC1OC(=O)CC(O)C(C)C(OC2OC(C)C(O)C(N(C)C)C2O)C(CCN(c2ccccc2)c2ccccc2)CC(C)C(=O)C=CC(C)=CC1CO (stereo not drawn) [Compound 56, 20-Diphenylamino-20-deoxy-20-dihydro-OMT]	> 128 µg/mL	> 128 µg/mL	4 µg/mL (≈ 5.33 µM)	2 µg/mL (≈ 2.66 µM)									2 µg/mL (≈ 2.66 µM)	2 µg/mL (≈ 2.66 µM)	32 µg/mL (≈ 42.6 µM)	4 µg/mL (≈ 5.33 µM)	> 128 µg/mL	4 µg/mL (≈ 5.33 µM)	1 µg/mL (≈ 1.33 µM)	1 µg/mL (≈ 1.33 µM)	MIC ([24]; Streptococcus pyogenes, C203): 2 µg/mL (≈ 2.66 µM); MIC [6]; 9960: 8 µg/mL (≈ 10.7 µM); MIC ([23]; Haemophilus influenzae, 76): 16 µg/mL (≈ 21.3 µM)
